Experiment: gradient 5% acetonitrile 3 min, to 50% in 2 min, to 85% in 15 min, held 3 min, 100 µL/min
Details: column: Zorbax Extend-C18 2.1 x 50 mm; eluents: water / acetonitrile, 0.1% formic acid
In short: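 The mobile phases were water and acetonitrile, each with 0.1% formic acid, pumped at 100 μL/min through a Zorbax Extend-C18 column (2.1 × 50 mm, 1.8 μm). Pure standards were injected as mixtures of ~100 molecules and detected by a quadrupole time-of-flight mass spectrometer in positive and negative ionization mode. Retention time came from computationally picked adduct peaks, each inspected by hand.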

SMILES	RP-LC retention time [s]
O=C1Cc2cc(NC(=O)Nc3ccc(Cl)c(Cl)c3)ccc2N1	742
O=C(O)[C@H]1O[C@H](Oc2cc3oc(-c4ccccc4)cc(=O)c3c(O)c2O)[C@H](O)[C@@H](O)[C@@H]1O	658
O=C1CCN(C(=O)C2CCN(C(=O)CCC3CCCC3)CC2)CCCCCCN1	725
CCCCN(C)C(=O)c1ccc2c(c1)Sc1ncccc1C(=O)N2C(C)C	804
COc1ccc(Cc2nc3ccccc3n2CC(N)=O)cc1OC	566
CN1C(=O)c2cccn2CC1C(=O)Nc1cccc(Cl)c1 (stereo unspecified)	730
CN(C)CCCc1cc(C(=O)Nc2ccc(-c3ccncc3)cc2)ccc1O	580
CCOc1cccc(-c2noc(Cn3nc(-c4ccc(C)cc4)ccc3=O)n2)c1	1170
CN1CCN(S(=O)(=O)c2cc(-c3nnc(C4CCCC4)o3)co2)CC1	619
CC(C)[C@@H]1CC[C@@H](C)C[C@@H]1P(=O)(c1ccccc1)c1ccccc1	1290
CNC(=O)c1cc(=O)[nH]c2c(C)cccc12	588
O=C(Nc1nc(-c2ccccc2Cl)cs1)c1cccnc1	858
CC(=O)c1ccn(S(=O)(=O)c2ccc(C)cc2)c1	804
O=S(=O)(Nc1ccc(Br)cn1)c1ccccc1	780
C=CCn1c(=O)c2ccccc2n(Cc2nc(-c3ccc(C)cc3)no2)c1=O	1070
O=C1c2cccc3c2[C@H](CCC3)CN1[C@@H]1CN2CCC1CC2	678
CCc1nc(-n2cccc2)sc1C(=O)Nc1ccc(F)cc1	1080
Cc1ccc2c(c1)C1(CCN(CCc3nc(-c4ccccc4)oc3C)CC1)OC(=O)N2	747
O=S(=O)(c1cccn2cnnc12)N(Cc1ccccc1F)c1ccc(F)c(F)c1	867
C[C@H](CSC(=O)c1ccccc1)C(=O)N1c2ccccc2C[C@H]1C(=O)O	877
CCOC(=O)CSc1nc2c(sc3ccccc32)c(=O)n1CCc1c[nH]c2ccccc12	1220
Cc1ccccc1CNC(=O)c1ccc(CN2CCN(Cc3ccccc3)C(=O)C2=O)cc1	797
CN(C)c1ccc(-c2nc3cnccn3c2NC2CCCC2)cc1	764
CCOCCCNC(=O)CN1c2ccc(CC)cc2-c2ccccc2S1(=O)=O	926
O=C1CCN(S(=O)(=O)c2ccccc2)CCCN(S(=O)(=O)Cc2ccccc2)CCN1	779
O=C1[C@H]2CN(Cc3cccc(OC(F)(F)F)c3)C[C@H]2C(=O)N1CCc1ccccc1	1000
Cc1ncoc1C(=O)N1CC(Oc2ccc(-c3nc(-c4ccccc4)no3)cc2)C1	1040

Second part, the compound after the results:

RP-LC retention time [s]	SMILES
663	O=C(Nc1cccc(F)c1)N1CCN(c2cnn3c(C4CC4)nnc3c2)CC1
756	Cn1nc(C(=O)N2CCCC(C(=O)Nc3ccccc3)C2)c2c1CCN(C(=O)c1cccc(F)c1)C2 (stereo unspecified)
850	Cc1cc(C)n2nc(SCC(=O)Nc3ccc(Br)cc3F)nc2n1
803	CCCN1C(=O)c2cc(C(=O)N3CCCCCC3)nn2CC1(C)C(=O)NC1CCCC1 (stereo unspecified)
1040	O=C(Nc1ccccc1Cl)N1CCCC1c1nc(-c2ccc(F)cc2F)no1 (stereo unspecified)
846	O=C(CN1CCN(Cc2ccc(F)cc2)C1=O)NCc1cccc(Cl)c1
645	COc1ccc(C(C)NC(=O)c2cn3ccc(C)cc3n2)cc1 (stereo unspecified)
662	CCn1c(=O)c2ccnn2c2ccc(C(=O)O)cc21
729	Cc1ccc(CCNC(=O)c2nc(N3CCOCC3)c3ccccc3n2)cc1
549	Cn1nc(N2CCC(NC(=O)Cc3ccncc3)C2)ccc1=O (stereo unspecified)
736	COc1ccc(-c2cc3nn(CC(=O)Nc4ccccc4OC)c(=O)n3c(C)n2)cc1
596	O=C1NCCCn2cc(S(=O)(=O)Nc3ccc(N4CCOCC4)cc3)cc21
657	Cc1nnc2cc(N3CCN(C(=O)Nc4ccc(Cl)cc4)CC3)cnn12
890	COc1ccccc1N1CCN(c2cc(SCC(=O)Nc3ccc(C#N)cc3)ncn2)CC1
1220	CCOc1ccccc1NC(=O)C1CCCN(c2nc3ccccc3nc2OC)C1 (stereo unspecified)
886	COc1ccc(-c2csc(NC(=O)c3sc(C)nc3C)n2)cc1
567	COc1cc(=O)n2c(c1C(=O)Nc1ccc(N(C)C)cc1)CCCC2
720	O=C(Cc1nnc2c(-c3nc(C4CC4)no3)cccn12)NC1CCCCCC1
847	COc1ccccc1CNC(=O)c1cn(C)nc1S(=O)(=O)N1CCSCC1
704	O=C(Cc1cccs1)NC1CCN(C(=O)c2cc(-c3cccs3)[nH]n2)CC1

RP-LC retention time [s]	SMILES
610	CCOc1cc(=O)n2c(c1C(=O)NCC1CCCO1)CCCCC2 (stereo unspecified)
891	Cc1cccc(C2CCCN2C(=O)c2c(Cl)cnn2C)c1 (stereo unspecified)
972	CCOc1ccc(C(=O)Nc2ccc3c(c2)Sc2ncccc2C(=O)N3C(C)C)cc1
774	CCCCNC(=O)c1ccc2c(c1)CCCN2S(C)(=O)=O
968	CCCc1nc(-c2cc3ccc(C)cc3nc2NC2CCCC2)no1
844	COc1cccc(CNC(=O)C2(C)CCCN(C(=O)Nc3cc(OC)cc(OC)c3)C2)c1 (stereo unspecified)
905	COc1ccc(Cl)cc1N1CC(c2nc(-c3cc(OC)c(OC)c(OC)c3)no2)CC1=O (stereo unspecified)
943	Cc1ccccc1NC(=O)c1cn(CC2CCCO2)cc2c(=O)n(-c3ccccc3)nc1-2 (stereo unspecified)
737	COC(=O)c1ccc(CSc2nnc(NC(=O)c3cc(C)on3)s2)o1
680	COc1ccc(NC(=O)Cn2c(N3CCCCC3)nc(C)cc2=O)c(OC)c1
721	O=C(COc1cccc(Cl)c1)N1CCN(c2nc(CN3CCOCC3)cs2)CC1
586	CCOC(=O)CCC(=O)Nc1cccc2ccc(-n3ccnc3)nc12
745	O=C1COc2cc(S(=O)(=O)N3CCCC3C(=O)NCc3ccc(F)cc3)c(Cl)cc2N1 (stereo unspecified)
948	COc1ccc(-c2noc(C3CC(=O)N(c4ccc(C)c(F)c4)C3)n2)c(OC)c1 (stereo unspecified)
643	O=C(Cc1ccsc1)Nc1ccc(N2CCN(Cc3ccccc3)C2=O)nc1
1100	Cc1nc(N2CCCC2)ncc1-c1ccnc(N2CCN(c3ccccc3)CC2)n1
807	CCCCNC(=O)Cn1nc2c3cc(-c4ccccc4)nn3ccn2c1=O
1080	O=C(Nc1cc(-c2cccc(Cl)c2)no1)C1CCCN(c2ncnc3c2nc2n3CCCCC2)C1 (stereo unspecified)
620	COc1cc(NC(=O)N2CCN(c3cc(-c4cccc(OC)c4)ncn3)CC2)cc(OC)c1
